# Data from patent US11345659B2, “Pipecolic esters for inhibition of the proteasome” (THE BOARD OF REGENTS OF THE UNIVERSY OF TEXAS SYSTEM, priority 2018, dated 2022).
# Entries after “also recorded” stand apart in the source; their conditions may differ.
# What was measured:
# mTOR = target: T1, mTOR (Homo sapiens, UniProt P42345+P62942); experiment: Western blot of S6 phosphorylation in RPMI 8226 cells; format: cell-based; conditions: RPMI 8226, 24 hours; rapamycin 2 nM, compound 3 and B1 0.2 μM
# T1 construct: endogenous in cells; host or cells: RPMI 8226 (ATCC)
# Method: (§1) Human multiple myeloma RPMI 8226 cells were purchased from American Type Culture Collection (ATCC; Manassas, Va.) and cultured according to ATCC specifications. […] The content of live cells was determined by excluding the Trypan Blue-stained cells. The cells were counted with TC20 Automated Cell Counter (Bio-Rad Laboratories, Hercules, Calif.) and EC50 was calculated with Origin Pro 2017 (OriginLab Corporation, Northampton, Mass.). When indicated, the cells were harvested, washed twice in PBS, resuspended in dilution buffer and stored in −80° C. To prepare crude lysates the thawed preparations were vortexed with glass beads and centrifuged for 5 min 5,000×g (4° C.). The supernate was centrifuged for 20 min 14,000×g. The resulting supernate was used as “crude lysate.” SDS-PAGE was carried in 12% acrylamide, Tris-glycine gels from Invitrogen. Chameleon Duo (Li-Cor) and Rainbow RPN800E (GE Healthcare) molecular weight standards were separated on each gel alongside lysates. The proteins were transferred to nitrocellulose membrane in a semi-dry system. The membranes were probed with specific primary antibodies from Life Technologies (S6, PS6) and Li-Cor (COX IV), and then with secondary antibodies from Li-Cor. In each experiment visualization of S6, PS6 and COX IV was performed on the same membrane with Odyssey Infrared Imaging System (Li-Cor). […]
# [1] = target: T2, 20 S human housekeeping proteasome (Homo sapiens, UniProt P25787+P25789); experiment: ChT-L peptidase activity of 20 S proteasome activated with Rpt5 peptide; format: biochemical; conditions: ChT-L, Suc-LLVY-AMC substrate, 20 S activated with Rpt5 peptide; read-out: IC50
# T2 construct: purified from erythrocytes; purchased Enzo Life Sciences, Inc. (Farmingdale, N.Y.); host or cells: human erythrocytes
# Method: (§2) Human housekeeping 20 S and 26 S and complexes purified from erythrocytes were purchased from Enzo Life Sciences, Inc. (Farmingdale, N.Y.). The 1 mg/ml stock 20 S proteasome was diluted to 0.2 mg/ml working solution in 50 mM Tris/HCl, pH 8 containing 20% glycerol (dilution buffer). For the 26 S proteasome stock, the dilution buffer was supplemented with 2 mM ATP, 1 mM MgCl2, and 1 mM DTT (dithiothreitol). The ChT-L peptidase activity was measured as arbitrary intensity units of fluorescence emitted by 7-amino-4-methylcoumarin (AMC) released from the canonical model peptide substrate succinyl-LeuLeuValTyr-methylcoumarin (SucLLVY-MCA; Bachem Bioscience Inc., Philadelphia, Pa.), used at concentration of 100 μM. Free AMC (Sigma-Aldrich, St. Louis, Mo.) was used as the standard. The Rpt5 C-terminal peptide was synthesized (standard solid-phase peptide chemistry) and purified to at least 98% purity by GenScript (Piscataway, N.J.). The Rpt5 peptide and the peptide substrate were dissolved in dimethylsulfoxide (DMSO) and such stock solutions were stored at −20° C. The total concentration of DMSO in final reaction mixtures never exceeded 3% (vol/vol).
# The reaction was carried out in 96-well plates, in 100 μL of reaction mixture, for 1 hour at 37° C. In the case of 20 S proteasome, the reaction mixture consisted of 45 mM Tris/HCl, pH 8, 100 mM KCl with premixed 10 μM Rpt5 peptide and 100 μM Suc-LLVY-MCA, to which 200 ng (nearly […]) of proteasome and desired concentration of tested compounds in 1 μL of DMSO were added. To test the activity of 26 S proteasome under conditions challenging coordination of the three pairs of peptidase active centers, a mixture of three canonical substrates specific for the ChT-L (SucLLVY-MCA), trypsin-like (T-L; BocLRR-MCA) and caspase-like (Casp-L; Z-LLE-MCA) was used with each of the substrates at 33.3 μM (100 μM of the total substrate concentration). The reaction mixture in this case consisted of 50 mM Tris/HCl, pH 8, 20 mM NaCl, premixed with the substrates and 2 mM ATP, to which 200 ng (nearly 0.1 nmol) of the 26 S working solution and desired concentration of tested compounds in 0.5 μL of DMSO were added. The reaction rates were calculated from a linear segment of kinetic curves constructed from measurements in 1-minutes intervals (Fluoroskan Ascent plate reader; Thermo Fisher Scientific Inc., Waltham, Mass.). Reaction rates were calculated using a linear fit executed by Slope Analyzer and Enzyme Kinetics applications launched within Origin Pro 2017 (OriginLab). Specific activity of the control 20 S proteasome activated with the Rpt5 peptide was in the range of 1.4 to 2.3 nanomoles of AMC product released by 1 mg of 20 S per second (1.95±0.24; n=18). Specific activity of the control 26 S proteasome challenged with three substrates reached on average 0.28±0.06 nanomoles of AMC product released by 1 mg of the enzyme per second (n=6). For comparison, degradation of the canonical Suc-LLVY-MCA substrate by the control 26 S proteasome preceded with a rate in the range of 0.6-0.8 nanomoles of AMC released per mg of the enzyme per second. The data are presented as mean±SD or as a representative set from at least 3 independent experiments.
# The compounds were evaluated using the 20 S human housekeeping proteasome. It was activated with the Rpt5 derived 10-residue peptide that contains the C-terminal HbYX (hydrophobic-Tyr-any AA) motif activating the proteasome in trans and to some extend mimic the activation by the 19 S regulatory particle (Osmulski and Gaczynska (2013) Molecular pharmacology 84: 104-113; Smith et al. (2006) J. Struct. Biol. 156: 72-83; Smith et al. (2007) Mol. Cell 27: 731-744). Proteolytic activity was monitored over time using a fluorogenic peptide substrate specific for the chymotrypsin-like active center (ChT-L, Suc-LLVY-AMC) in the presence of a concentration range of the inhibitors. […]
# FKBP12 = target: T3, FKBP12 (Homo sapiens, UniProt P62942); experiment: Suppression of rapamycin inhibition of S6 phosphorylation by competing for FKBP12; format: cell-based; conditions: RPMI 8226, 24 hours; FK506 10 μM, compound 3 and B1 0.2 μM, with rapamycin
# T3 construct: endogenous in cells; host or cells: RPMI 8226 (ATCC)
# Method: as §1
# [2] = system: Human multiple myeloma RPMI 8226 cells; experiment: Proliferation of RPMI 8226 cells, live cell count by Trypan Blue exclusion; format: cell-based; conditions: RPMI 8226, 0.2 μM, 24 hours, read-out: cell proliferation, % of control
# Method: Human multiple myeloma RPMI 8226 cells were purchased from American Type Culture Collection (ATCC; Manassas, Va.) and cultured according to ATCC specifications. […] The content of live cells was determined by excluding the Trypan Blue-stained cells. The cells were counted with TC20 Automated Cell Counter (Bio-Rad Laboratories, Hercules, Calif.) and EC50 was calculated with Origin Pro 2017 (OriginLab Corporation, Northampton, Mass.). When indicated, the cells were harvested, washed twice in PBS, resuspended in dilution buffer and stored in −80° C. To prepare crude lysates the thawed preparations were vortexed with glass beads and centrifuged for 5 min 5,000×g (4° C.). The supernate was centrifuged for 20 min 14,000×g. The resulting supernate was used as “crude lysate.” SDS-PAGE was carried in 12% acrylamide, Tris-glycine gels from Invitrogen. Chameleon Duo (Li-Cor) and Rainbow RPN800E (GE Healthcare) molecular weight standards were separated on each gel alongside lysates. The proteins were transferred to nitrocellulose membrane in a semi-dry system. The membranes were probed with specific primary antibodies from Life Technologies (S6, PS6) and Li-Cor (COX IV), and then with secondary antibodies from Li-Cor. In each experiment visualization of S6, PS6 and COX IV was performed on the same membrane with Odyssey Infrared Imaging System (Li-Cor).
# The effects of compound 3 observed in vitro prompted its influence on the proliferation of cultured cancer cells to be tested, namely the multiple myeloma RPMI 8226 line. […] Such relatively low EC50, as compared to in vitro determined IC50 values for peptidase activities (2-3 μM; FIG. 3A and FIG. 3B) should come to no surprise. […] The in vitro readout of single peptidase activities is a useful and convenient measure of the catalytic prowess of proteasome. However, especially in the case of allosteric regulators, it may not fully reflect the important structural and functional effects.
# Referring to FIG. […] The data are averages (±SD) of three-to-five independent experiments. […]
# 26 S proteasome = target: T4, 26 S proteasome (Homo sapiens, UniProt P25787+P25789); experiment: 26 S proteasome challenged with mixture of three substrates (surrogate proteinase assay); format: biochemical; conditions: mixture of ChT-L, T-L and Casp-L substrates, 33.3 μM each; read-out: IC50, 26 S proteasome with substrates for all three peptidases
# T4 construct: purified from erythrocytes; purchased Enzo Life Sciences, Inc. (Farmingdale, N.Y.); host or cells: human erythrocytes
# Method: as §2
# The reaction was carried out in 96-well plates, in 100 μL of reaction mixture, for 1 hour at 37° C. In the case of 20 S proteasome, the reaction mixture consisted of 45 mM Tris/HCl, pH 8, 100 mM KCl with premixed 10 μM Rpt5 peptide and 100 μM Suc-LLVY-MCA, to which 200 ng (nearly […]) of proteasome and desired concentration of tested compounds in 1 μL of DMSO were added. […] The reaction rates were calculated from a linear segment of kinetic curves constructed from measurements in 1-minutes intervals (Fluoroskan Ascent plate reader; Thermo Fisher Scientific Inc., Waltham, Mass.). Reaction rates were calculated using a linear fit executed by Slope Analyzer and Enzyme Kinetics applications launched within Origin Pro 2017 (OriginLab). […]
# [3] = target: T5, native human 20 S core proteasome (Homo sapiens, UniProt P25787+P25789); conditions: literature; cited from earlier work
# T5 construct: purified from erythrocytes; purchased Enzo Life Sciences, Inc. (Farmingdale, N.Y.); host or cells: human erythrocytes
# T3 sequence (P62942 whole entry): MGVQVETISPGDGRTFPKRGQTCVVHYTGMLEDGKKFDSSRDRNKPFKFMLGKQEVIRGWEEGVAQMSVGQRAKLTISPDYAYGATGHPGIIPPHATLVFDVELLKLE
Structure (SMILES),activity of mTOR (phosphorylation of S6) (mTOR),IC50 [1] [µM],suppression of rapamycin inhibition of S6 phosphorylation (FKBP12 binding) (FKBP12),activity at 0.2 µM [2] [%],IC50 (26 S proteasome) [µM],contribution of closed forms in 20 S particles population [3]
COc1cc(CCCOC(=O)[C@@H]2CCCCN2C(=O)C(=O)C2CCCCC2)cc(OC)c1OC (racemic) [Compound B1],neither B1 nor compound 3 affected the activity of mTOR; also recorded: did not inhibit the S6 phosphorylation,5.8,did not mimic the actions of FK506,60 to 65,4.6,
CCOC(=O)[C@]1(c2ccccc2)N=C(c2ccc(OC)cc2)N(Cc2ccccc2)[C@@H]1c1ccc(NCc2ccccc2)cc1 [TCH-165],,,,,,induced a strong decrease in contribution of the closed forms
